Where “and” joins values, the source holds several entries; their conditions need not be identical. Equal values may be shown once. Read-outs that look alike come from different tables or passages of the source.
Key:
MOLT-4 = test: NCI in vitro five dose anticancer assay; assay type: cell-based, human
SNB-75 = test: NCI in vitro five dose anticancer assay; assay type: cell-based, human
DU-145 = test: NCI in vitro five dose anticancer assay; assay type: cell-based, human
MDA-MB-468 = test: NCI in vitro five dose anticancer assay; assay type: cell-based, human
MDA-MB-435 = test: NCI in vitro five dose anticancer assay; assay type: cell-based, human
HCT-116 = test: NCI in vitro five dose anticancer assay; assay type: cell-based, human
[1] = test system: chronic myeloid leukemia K-562; test: Trypan blue exclusion cytotoxicity assay
OVCAR-5 = test: NCI in vitro five dose anticancer assay; assay type: cell-based, human
T-47D = test: NCI in vitro five dose anticancer assay; assay type: cell-based, human
HL-60(TB) = test: NCI in vitro five dose anticancer assay; assay type: cell-based, human
BT-549 = test: NCI in vitro five dose anticancer assay; assay type: cell-based, human
[2] = test system: p-PI3K, p-Akt, p-mTOR and p-GSK-3β in A549 cells; test: Western blotting, PI3K/Akt/mTOR pathway; assay type: cell-based, human; conditions: 1, 3, or 6 μM, western blot, dose-dependent
A498 = test: NCI in vitro five dose anticancer assay; assay type: cell-based, human
LOX IMVI = test: NCI in vitro five dose anticancer assay; assay type: cell-based, human
NCI/ADR-RES = test: NCI in vitro five dose anticancer assay; assay type: cell-based, human
SK-MEL-2 = test: NCI in vitro five dose anticancer assay; assay type: cell-based, human
OVCAR-4 = test: NCI in vitro five dose anticancer assay; assay type: cell-based, human
SK-MEL-5 = test: NCI in vitro five dose anticancer assay; assay type: cell-based, human
UACC-257 = test: NCI in vitro five dose anticancer assay; assay type: cell-based, human
SR = test: NCI in vitro five dose anticancer assay; assay type: cell-based, human
PI3K-α = PI3K-α (Homo sapiens, UniProt P42336); test: PI3K biochemical assay
PI3K-α, sequence (P42336 whole entry): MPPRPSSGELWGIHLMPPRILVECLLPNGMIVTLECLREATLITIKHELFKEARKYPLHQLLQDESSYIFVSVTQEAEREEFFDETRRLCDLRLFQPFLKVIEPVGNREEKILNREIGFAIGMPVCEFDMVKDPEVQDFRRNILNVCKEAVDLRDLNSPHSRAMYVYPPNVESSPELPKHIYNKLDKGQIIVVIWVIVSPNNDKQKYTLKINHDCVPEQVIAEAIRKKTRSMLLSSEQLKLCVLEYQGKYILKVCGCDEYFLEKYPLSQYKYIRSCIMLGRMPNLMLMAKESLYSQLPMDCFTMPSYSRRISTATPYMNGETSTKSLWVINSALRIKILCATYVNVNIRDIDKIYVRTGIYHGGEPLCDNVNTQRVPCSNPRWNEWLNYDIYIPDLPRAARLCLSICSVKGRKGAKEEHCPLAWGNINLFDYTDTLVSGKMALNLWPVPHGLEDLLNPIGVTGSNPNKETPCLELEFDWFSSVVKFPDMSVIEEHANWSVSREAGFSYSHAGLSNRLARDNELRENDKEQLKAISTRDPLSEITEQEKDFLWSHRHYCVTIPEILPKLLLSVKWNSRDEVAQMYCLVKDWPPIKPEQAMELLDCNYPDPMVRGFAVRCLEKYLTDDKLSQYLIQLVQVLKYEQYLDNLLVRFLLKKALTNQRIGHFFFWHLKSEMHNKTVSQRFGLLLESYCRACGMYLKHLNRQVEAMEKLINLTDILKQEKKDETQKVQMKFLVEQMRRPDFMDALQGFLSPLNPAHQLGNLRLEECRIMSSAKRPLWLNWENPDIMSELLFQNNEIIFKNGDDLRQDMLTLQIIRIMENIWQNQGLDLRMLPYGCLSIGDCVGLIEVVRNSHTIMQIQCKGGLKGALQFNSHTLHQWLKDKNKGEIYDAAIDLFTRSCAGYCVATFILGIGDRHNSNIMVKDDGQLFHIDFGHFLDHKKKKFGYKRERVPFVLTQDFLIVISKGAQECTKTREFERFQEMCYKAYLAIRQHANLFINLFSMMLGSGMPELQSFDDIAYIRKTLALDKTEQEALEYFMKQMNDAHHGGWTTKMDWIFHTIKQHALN
PI3K-α, sequence (P27986 whole entry partner): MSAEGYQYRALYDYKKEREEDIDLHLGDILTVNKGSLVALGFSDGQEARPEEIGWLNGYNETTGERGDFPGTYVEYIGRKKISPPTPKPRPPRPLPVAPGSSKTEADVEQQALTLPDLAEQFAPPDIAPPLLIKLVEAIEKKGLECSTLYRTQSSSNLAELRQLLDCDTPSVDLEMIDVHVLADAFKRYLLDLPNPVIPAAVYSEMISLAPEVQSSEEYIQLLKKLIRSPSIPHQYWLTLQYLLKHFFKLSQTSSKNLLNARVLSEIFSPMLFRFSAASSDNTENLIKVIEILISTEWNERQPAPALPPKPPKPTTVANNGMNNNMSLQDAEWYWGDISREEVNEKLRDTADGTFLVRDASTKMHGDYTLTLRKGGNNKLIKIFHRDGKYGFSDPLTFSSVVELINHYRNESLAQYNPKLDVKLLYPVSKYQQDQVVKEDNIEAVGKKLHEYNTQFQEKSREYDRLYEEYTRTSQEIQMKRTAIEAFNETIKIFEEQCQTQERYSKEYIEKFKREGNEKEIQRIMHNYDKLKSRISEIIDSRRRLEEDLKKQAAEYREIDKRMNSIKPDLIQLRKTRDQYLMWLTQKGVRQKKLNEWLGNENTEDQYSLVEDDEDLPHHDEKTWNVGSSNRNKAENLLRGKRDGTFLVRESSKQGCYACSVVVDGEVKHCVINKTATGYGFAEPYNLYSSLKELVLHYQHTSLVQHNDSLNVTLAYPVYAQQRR

PI3K-γ = PI3K-γ (Homo sapiens, UniProt P48736); test: PI3K biochemical assay
PI3K-γ, sequence (P48736 whole entry): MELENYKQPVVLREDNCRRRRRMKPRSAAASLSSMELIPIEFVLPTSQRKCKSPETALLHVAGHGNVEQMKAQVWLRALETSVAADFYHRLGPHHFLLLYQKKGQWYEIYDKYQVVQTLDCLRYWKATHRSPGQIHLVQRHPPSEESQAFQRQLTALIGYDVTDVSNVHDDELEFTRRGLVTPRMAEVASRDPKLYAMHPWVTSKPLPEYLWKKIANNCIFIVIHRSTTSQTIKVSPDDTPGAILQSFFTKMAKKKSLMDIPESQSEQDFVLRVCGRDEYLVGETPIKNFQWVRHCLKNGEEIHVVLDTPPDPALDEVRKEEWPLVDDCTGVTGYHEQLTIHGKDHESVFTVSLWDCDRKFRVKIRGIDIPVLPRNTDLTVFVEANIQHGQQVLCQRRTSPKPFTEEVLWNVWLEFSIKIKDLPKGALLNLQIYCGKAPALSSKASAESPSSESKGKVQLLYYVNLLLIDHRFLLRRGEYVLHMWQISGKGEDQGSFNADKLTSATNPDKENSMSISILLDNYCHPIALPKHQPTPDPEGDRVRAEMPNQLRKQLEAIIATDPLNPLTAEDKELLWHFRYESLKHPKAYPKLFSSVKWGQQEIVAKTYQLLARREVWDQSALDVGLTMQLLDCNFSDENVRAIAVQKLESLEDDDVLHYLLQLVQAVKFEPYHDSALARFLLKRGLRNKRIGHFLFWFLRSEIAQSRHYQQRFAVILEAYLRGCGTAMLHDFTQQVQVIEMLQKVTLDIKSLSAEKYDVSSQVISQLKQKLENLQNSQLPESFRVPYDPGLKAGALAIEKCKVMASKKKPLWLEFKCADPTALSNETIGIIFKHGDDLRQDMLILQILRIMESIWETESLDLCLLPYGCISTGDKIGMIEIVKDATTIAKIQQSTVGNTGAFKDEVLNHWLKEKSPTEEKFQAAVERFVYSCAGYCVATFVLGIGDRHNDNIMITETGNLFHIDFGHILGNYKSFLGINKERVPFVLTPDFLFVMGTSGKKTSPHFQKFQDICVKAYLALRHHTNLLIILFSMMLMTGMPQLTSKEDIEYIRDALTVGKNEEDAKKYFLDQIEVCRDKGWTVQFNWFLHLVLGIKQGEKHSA

UO-31 = test: NCI in vitro five dose anticancer assay; assay type: cell-based, human
MCF7 = test: NCI in vitro five dose anticancer assay; assay type: cell-based, human
HOP-92 = test: NCI in vitro five dose anticancer assay; assay type: cell-based, human
EKVX = test: NCI in vitro five dose anticancer assay; assay type: cell-based, human
[3] = test system: human lung adenocarcinoma A549; test: Trypan blue exclusion cytotoxicity assay
HCC-2998 = test: NCI in vitro five dose anticancer assay; assay type: cell-based, human
UACC-62 = test: NCI in vitro five dose anticancer assay; assay type: cell-based, human
OVCAR-8 = test: NCI in vitro five dose anticancer assay; assay type: cell-based, human
SF-539 = test: NCI in vitro five dose anticancer assay; assay type: cell-based, human
CCRF-CEM = test: NCI in vitro five dose anticancer assay; assay type: cell-based, human
A549 cells = test: Cell cycle analysis by flow cytometry; assay type: cell-based, human; conditions: 24 h
PI3K-δ = PI3K-δ (Homo sapiens, UniProt O00329); test: PI3K biochemical assay
PI3K-δ, sequence (O00329 whole entry): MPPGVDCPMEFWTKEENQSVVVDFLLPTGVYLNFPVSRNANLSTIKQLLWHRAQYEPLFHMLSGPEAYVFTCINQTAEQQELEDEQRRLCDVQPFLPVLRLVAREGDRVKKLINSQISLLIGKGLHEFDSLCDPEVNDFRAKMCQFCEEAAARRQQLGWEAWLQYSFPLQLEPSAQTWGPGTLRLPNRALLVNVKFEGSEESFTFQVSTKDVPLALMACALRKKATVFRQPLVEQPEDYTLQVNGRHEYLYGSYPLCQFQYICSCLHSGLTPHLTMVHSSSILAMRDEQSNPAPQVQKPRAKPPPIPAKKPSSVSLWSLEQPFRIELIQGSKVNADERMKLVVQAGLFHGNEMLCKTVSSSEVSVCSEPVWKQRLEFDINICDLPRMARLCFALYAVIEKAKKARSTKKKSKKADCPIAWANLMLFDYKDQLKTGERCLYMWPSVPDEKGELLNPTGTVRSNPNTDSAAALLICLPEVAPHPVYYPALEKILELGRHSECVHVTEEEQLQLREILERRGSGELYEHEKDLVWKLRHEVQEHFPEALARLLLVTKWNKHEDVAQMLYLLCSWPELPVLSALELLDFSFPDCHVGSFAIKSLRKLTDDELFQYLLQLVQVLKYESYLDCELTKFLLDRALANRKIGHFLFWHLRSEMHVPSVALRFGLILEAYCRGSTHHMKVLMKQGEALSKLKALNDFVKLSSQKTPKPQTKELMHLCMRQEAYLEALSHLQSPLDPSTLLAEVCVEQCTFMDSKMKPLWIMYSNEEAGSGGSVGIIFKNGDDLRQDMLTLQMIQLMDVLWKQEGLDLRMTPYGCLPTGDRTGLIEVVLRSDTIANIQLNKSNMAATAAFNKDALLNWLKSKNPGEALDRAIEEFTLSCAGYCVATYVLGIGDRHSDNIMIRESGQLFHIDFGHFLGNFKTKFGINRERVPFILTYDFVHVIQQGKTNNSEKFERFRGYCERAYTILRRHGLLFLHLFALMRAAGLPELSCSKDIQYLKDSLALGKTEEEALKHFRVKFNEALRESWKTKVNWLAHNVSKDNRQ
PI3K-δ, sequence (P27986 whole entry partner): as the sequence (P27986 whole entry partner) above

SK-OV-3 = test: NCI in vitro five dose anticancer assay; assay type: cell-based, human
NCI-H226 = test: NCI in vitro five dose anticancer assay; assay type: cell-based, human
[4] = read-out: K-562 (IC50 μM), trypan blue exclusion, 24 h, mean ± SD
[5] = Ovarian cancer, five dose assay
[6] = Non-small cell lung cancer, five dose assay
[7] = read-out: A549 (IC50 μM), trypan blue exclusion, 24 h, mean ± SD

With `COc1ccc(-c2cc(C(=O)NN=C(/C=C\c3ccc(Cl)cc3)c3ccc(N)cc3)c3ccccc3n2)cc1` [Compound 9i, N’-((Z)-1-(4-Aminophenyl)-3-(4-chlorophenyl)allylidene)-2-(4-methoxphenyl)quinoline-4-carbohydrazide] as the molecule, how does the GI50 (MOLT-4; Leukemia, five dose assay) read?
Its GI50 is 3300 nM.

What about the GI50 (SNB-75; CNS cancer, five dose assay) of the same molecule?
The GI50 was 371 nM.

What about the GI50 (DU-145; Prostate cancer, five dose assay) of the same molecule?
Its GI50 is 3160 nM.

What about the GI50 (MDA-MB-468; Breast cancer, five dose assay) of the same molecule?
Its GI50 is 2950 nM.

And the GI50 (MDA-MB-435; Melanoma, five dose assay)?
The GI50 was 305 nM.

And the GI50 (HCT-116; Colon cancer, five dose assay)?
The GI50 was 1410 nM.

What about the IC50 [1, 4] of the same molecule?
Its IC50 is 1.9 µM and 1.91 µM.

What about the GI50 (OVCAR-5; [5]) of the same molecule?
The GI50 was 5510 nM.

And the GI50 (T-47D; Breast cancer, T-47D, five dose assay)?
The GI50 was 2700 nM.

And the GI50 (HL-60(TB); Leukemia, HL-60(TB), five dose assay)?
Its GI50 is 2540 nM.

What about the GI50 (BT-549; Breast cancer, five dose assay) of the same molecule?
Its GI50 is 2040 nM.

And the “levels of phosphorylated Akt (at Ser473)” value [2]?
Its value is “decreases”.

What about the “levels of phosphorylated GSK-3β” value [2] of the same molecule?
Its value is “decreases”.

What about the “levels of phosphorylated PI3K (at Tyr458)” value [2] of the same molecule?
The value was “decreases”.

And the “levels of phosphorylated mTOR (at Ser2448)” value [2]?
Its value is “decreases”.

What about the GI50 (A498; Renal cancer, five dose assay) of the same molecule?
Its GI50 is 375 nM.

What about the GI50 (LOX IMVI; Melanoma, five dose assay) of the same molecule?
Its GI50 is 1560 nM.

What about the GI50 (NCI/ADR-RES; [5]) of the same molecule?
Its GI50 is 519 nM.

What about the GI50 (SK-MEL-2; Melanoma, five dose assay) of the same molecule?
The GI50 was 2030 nM.

And the GI50 (OVCAR-4; [5])?
The GI50 was 1820 nM.

What about the GI50 (SK-MEL-5; Melanoma, five dose assay) of the same molecule?
The GI50 was 701 nM.

And the GI50 (UACC-257; Melanoma, five dose assay)?
The GI50 was greater than 100000 nM.

And the GI50 (SR; Leukemia, five dose assay)?
The GI50 was 595 nM.

And the IC50 (PI3K-α; read-out: IC50 (nM) PI3K-α, ADP-Glo, ATP 10 μM)?
Its IC50 is 248 nM.

What about the IC50 (PI3K-γ; read-out: IC50 (nM) PI3K-γ, ADP-Glo, ATP 10 μM) of the same molecule?
The IC50 was 52 nM.

And the GI50 (UO-31; Renal cancer, five dose assay)?
The GI50 was 1550 nM.

What about the GI50 (MCF7; Breast cancer, five dose assay) of the same molecule?
The GI50 was 442 nM.

And the GI50 (HOP-92; [6])?
The GI50 was 1920 nM.

What about the GI50 (EKVX; [6]) of the same molecule?
Its GI50 is 3780 nM.

What about the IC50 [3, 7] of the same molecule?
The IC50 was 4 µM and 3.9 µM and 3.91 µM.

And the GI50 (HCC-2998; Colon cancer, HCC-2998, five dose assay)?
The GI50 was 3400 nM.

What about the GI50 (UACC-62; Melanoma, five dose assay) of the same molecule?
Its GI50 is 556 nM.

And the GI50 (OVCAR-8; [5])?
Its GI50 is 4160 nM.

And the GI50 (SF-539; CNS cancer, five dose assay)?
The GI50 was 1410 nM.

And the GI50 (CCRF-CEM; Leukemia, five dose assay)?
Its GI50 is 5840 nM.

And the “percentage of cells in the G2/M phase” value (A549 cells; 1 μM)?
The value was 11%.

And the “percentage of cells in the G2/M phase” value (A549 cells; 3 μM)?
The value was 61.2%.

And the “percentage of cells in the G2/M phase” value (A549 cells; 6 μM)?
Its value is 76.2%.

What about the IC50 (PI3K-δ; read-out: IC50 (nM) PI3K-δ, ADP-Glo, ATP 10 μM) of the same molecule?
Its IC50 is 438 nM.

And the GI50 (SK-OV-3; [5])?
Its GI50 is 3320 nM.

And the GI50 (NCI-H226; [6])?
Its GI50 is 7540 nM.

With `Cc1ccc(-c2cc(C(=O)NN=C(/C=C\c3ccc(Cl)cc3)c3ccc(N)cc3)c3ccccc3n2)cc1` [Compound 9j, N’-((Z)-1-(4-Aminophenyl)-3-(4-chlorophenyl)allylidene)-2-(4-methylphenyl)quinoline-4-carbohydrazide] as the molecule, how does the GI50 (MOLT-4; Homo sapiens) read?
Its GI50 is 3230 nM.

What about the GI50 (SNB-75; Homo sapiens) of the same molecule?
Its GI50 is 1410 nM.

And the GI50 (DU-145; Homo sapiens)?
The GI50 was 3680 nM.

What about the GI50 (MDA-MB-468; Homo sapiens) of the same molecule?
Its GI50 is 4910 nM.

And the GI50 (MDA-MB-435; Homo sapiens)?
Its GI50 is 1000 nM.

What about the GI50 (HCT-116; Homo sapiens) of the same molecule?
Its GI50 is 3180 nM.

What about the IC50 ([1]; Homo sapiens, K562, 24 h, read-out: K-562 (IC50 μM), trypan blue exclusion, mean ± SD) of the same molecule?
Its IC50 is 2.7 µM.

And the IC50 [1, 4]?
Its IC50 is 2.67 ± 0.27 µM.

And the GI50 (OVCAR-5; Homo sapiens)?
The GI50 was 8430 nM.

What about the GI50 (T-47D; Homo sapiens, T47D) of the same molecule?
Its GI50 is 2730 nM.

What about the GI50 (HL-60(TB); Homo sapiens, HL-60) of the same molecule?
Its GI50 is 3490 nM.

What about the GI50 (BT-549; Homo sapiens) of the same molecule?
Its GI50 is 3920 nM.

And the “levels of phosphorylated Akt (at Ser473)” value [2]?
Its value is “decreases”.

What about the “levels of phosphorylated GSK-3β” value [2] of the same molecule?
Its value is “decreases”.

What about the “levels of phosphorylated PI3K (at Tyr458)” value [2] of the same molecule?
Its value is “decreases”.

What about the “levels of phosphorylated mTOR (at Ser2448)” value [2] of the same molecule?
The value was “decreases”.

And the GI50 (A498; Homo sapiens)?
The GI50 was 1640 nM.

And the GI50 (LOX IMVI; Homo sapiens)?
Its GI50 is 4000 nM.

And the GI50 (NCI/ADR-RES; Homo sapiens)?
The GI50 was 2540 nM.

And the GI50 (SK-MEL-2; Homo sapiens)?
The GI50 was 3810 nM.

What about the GI50 (OVCAR-4; Homo sapiens) of the same molecule?
The GI50 was 4710 nM.

What about the GI50 (SK-MEL-5; Homo sapiens) of the same molecule?
Its GI50 is 2500 nM.

And the GI50 (UACC-257; Homo sapiens)?
Its GI50 is 33700 nM.

What about the GI50 (SR; Homo sapiens) of the same molecule?
Its GI50 is 3290 nM.

What about the IC50 (PI3K-α) of the same molecule?
The IC50 was 271 nM.

What about the IC50 (PI3K-γ) of the same molecule?
Its IC50 is 197 nM.

What about the GI50 (UO-31; Homo sapiens) of the same molecule?
Its GI50 is 2200 nM.

And the GI50 (MCF7; Homo sapiens)?
The GI50 was 2530 nM.

What about the GI50 (HOP-92; Homo sapiens) of the same molecule?
Its GI50 is 4100 nM.

And the GI50 (EKVX; Homo sapiens)?
Its GI50 is 3990 nM.

And the IC50 ([3]; Homo sapiens, A549, 24 h, read-out: A549 (IC50 μM), trypan blue exclusion, mean ± SD)?
Its IC50 is 5 µM.

And the IC50 [3, 7]?
Its IC50 is 5.29 ± 0.19 µM.

What about the GI50 (HCC-2998; Homo sapiens, HCC 2998) of the same molecule?
Its GI50 is 4280 nM.

What about the GI50 (UACC-62; Homo sapiens) of the same molecule?
Its GI50 is 2060 nM.

What about the GI50 (OVCAR-8; Homo sapiens) of the same molecule?
Its GI50 is 5250 nM.

What about the GI50 (SF-539; Homo sapiens) of the same molecule?
The GI50 was 2430 nM.

And the GI50 (CCRF-CEM; Homo sapiens)?
The GI50 was 4530 nM.

And the “percentage of cells in the G2/M phase” value (A549 cells; 1 μM)?
The value was 6.22%.

What about the “percentage of cells in the G2/M phase” value (A549 cells; 3 μM) of the same molecule?
The value was 15.8%.

What about the “percentage of cells in the G2/M phase” value (A549 cells; 6 μM) of the same molecule?
The value was 59.6%.

What about the IC50 (PI3K-δ) of the same molecule?
Its IC50 is 473 nM.

What about the GI50 (SK-OV-3; Homo sapiens) of the same molecule?
Its GI50 is 4940 nM.

And the GI50 (NCI-H226; Homo sapiens)?
The GI50 was 6470 nM.

Reference: PMC6931042 (Bioorganic chemistry, 2018)
